According to ChEMBL document CHEMBL3885881, “DrugMatrix”:

Species on record: Rattus norvegicus
Assay: DrugMatrix - Regimen: Daily Repeat
Type: toxicity, organism-based, Sprague-Dawley
Parameters: regimen Daily Repeat, gender Male, age 6-8 weeks
Conditions: in vivo, po, route oral GAVAGE, […]; for ABSOLUTE BASOPHIL / BASOPHIL / NUCLEATED RED BLOOD CELLS / ABSOLUTE EOSINOPHIL / EOSINOPHIL / HEMOGLOBIN / PLATELET COUNT / ABSOLUTE LYMPHOCYTE / ABSOLUTE MONOCYTE / ABSOLUTE SEGMENTED NEUTROPHIL / ERYTHROCYTE COUNT / HEMATOCRIT / LYMPHOCYTE / MEAN CORPUSCULAR HEMOGLOBIN CONCENTRATION / MEAN CORPUSCULAR VOLUME: tissue Blood; for ASPARTATE AMINOTRANSFERASE / ALANINE AMINOTRANSFERASE / ALBUMIN / ALKALINE PHOSPHATASE / BLOOD UREA NITROGEN / CARBON DIOXIDE / CREATINE PHOSPHOKINASE / CREATININE / LACTATE DEHYDROGENASE / TOTAL BILIRUBIN / TOTAL PROTEIN / URIC ACID: tissue Plasma
[1] = 0 mg/kg, 72 h, dose level Control, time 3 day
[2] = 0 mg/kg, 120 h, dose level Control, time 5 day
[3] = 0 mg/kg, dose level Control, time 7 day
[4] = 43 mg/kg, 72 h, dose level Low, time 3 day
[5] = 43 mg/kg, 120 h, dose level Low, time 5 day
[6] = 100 mg/kg, 72 h, dose level M1, time 3 day
[7] = 100 mg/kg, dose level M1, time 7 day
[8] = 215 mg/kg, 72 h, dose level M2, time 3 day

CC(C)OC(=O)C(C)(C)Oc1ccc(C(=O)c2ccc(Cl)cc2)cc1 [FENOFIBRATE]
ABSOLUTE BASOPHIL [1]: 0 CELLS/uL
BASOPHIL [1]: 0%
NUCLEATED RED BLOOD CELLS [1]: 0 /100WBC
ABSOLUTE BASOPHIL [2]: 0 CELLS/uL
ABSOLUTE EOSINOPHIL [2]: 0 CELLS/uL
BASOPHIL [2]: 0%
EOSINOPHIL [2]: 0%
HEMOGLOBIN [2]: 13.5 G/DL
PLATELET COUNT [2]: 807.17 x10E3/uL
ASPARTATE AMINOTRANSFERASE [2]: 83 u/L
ABSOLUTE BASOPHIL [3]: 0 CELLS/uL
ABSOLUTE EOSINOPHIL [3]: 19 CELLS/uL
ABSOLUTE LYMPHOCYTE [3]: 7803.5 CELLS/uL
ABSOLUTE MONOCYTE [3]: 117.83 CELLS/uL
ABSOLUTE SEGMENTED NEUTROPHIL [3]: 1093 CELLS/uL
BASOPHIL [3]: 0%
EOSINOPHIL [3]: 0.17%
ERYTHROCYTE COUNT [3]: 5.84 x10E6/uL
HEMATOCRIT [3]: 35.75%
HEMOGLOBIN [3]: 13.87 G/DL
LYMPHOCYTE [3]: 87.17%
MEAN CORPUSCULAR HEMOGLOBIN CONCENTRATION [3]: 38.8 G/DL
MEAN CORPUSCULAR VOLUME [3]: 61.25 fL
NUCLEATED RED BLOOD CELLS [3]: 0 /100WBC
PLATELET COUNT [3]: 1098.67 x10E3/uL
ALANINE AMINOTRANSFERASE [3]: 66 u/L
ALBUMIN [3]: 4.3 G/DL
ALKALINE PHOSPHATASE [3]: 291.83 u/L
ASPARTATE AMINOTRANSFERASE [3]: 80.5 u/L
BLOOD UREA NITROGEN [3]: 15.67 mg/dL
CARBON DIOXIDE [3]: 30 mmol/L
CREATINE PHOSPHOKINASE [3]: 363.33 u/L
CREATININE [3]: 0.25 mg/dL
LACTATE DEHYDROGENASE [3]: 219.67 u/L
TOTAL BILIRUBIN [3]: 0.12 mg/dL
TOTAL PROTEIN [3]: 6.33 G/DL
URIC ACID [3]: 0.75 mg/dL
ABSOLUTE BASOPHIL [4]: 0 CELLS/uL
ABSOLUTE EOSINOPHIL [4]: 76 CELLS/uL
ABSOLUTE LYMPHOCYTE [4]: 10300 CELLS/uL
ABSOLUTE MONOCYTE [4]: 0 CELLS/uL
ABSOLUTE SEGMENTED NEUTROPHIL [4]: 324 CELLS/uL
BASOPHIL [4]: 0%
EOSINOPHIL [4]: 0.67%
ERYTHROCYTE COUNT [4]: 5.15 x10E6/uL
HEMATOCRIT [4]: 32.83%
HEMOGLOBIN [4]: 12.83 G/DL
LYMPHOCYTE [4]: 96.33%
MEAN CORPUSCULAR HEMOGLOBIN CONCENTRATION [4]: 39.07 G/DL
MEAN CORPUSCULAR VOLUME [4]: 63.77 fL
NUCLEATED RED BLOOD CELLS [4]: 0.33 /100WBC
PLATELET COUNT [4]: 922 x10E3/uL
ALANINE AMINOTRANSFERASE [4]: 71 u/L
ALBUMIN [4]: 3.7 G/DL
ALKALINE PHOSPHATASE [4]: 389.33 u/L
ASPARTATE AMINOTRANSFERASE [4]: 87.67 u/L
BLOOD UREA NITROGEN [4]: 7 mg/dL
CARBON DIOXIDE [4]: 22 mmol/L
CREATINE PHOSPHOKINASE [4]: 129.33 u/L
CREATININE [4]: 0.13 mg/dL
LACTATE DEHYDROGENASE [4]: 74.33 u/L
TOTAL BILIRUBIN [4]: 0.1 mg/dL
TOTAL PROTEIN [4]: 4.67 G/DL
URIC ACID [4]: 0.63 mg/dL
ABSOLUTE BASOPHIL [5]: 0 CELLS/uL
ABSOLUTE EOSINOPHIL [5]: 51.33 CELLS/uL
ABSOLUTE LYMPHOCYTE [5]: 9774.33 CELLS/uL
ABSOLUTE MONOCYTE [5]: 51.33 CELLS/uL
ABSOLUTE SEGMENTED NEUTROPHIL [5]: 823 CELLS/uL
BASOPHIL [5]: 0%
EOSINOPHIL [5]: 0.67%
ERYTHROCYTE COUNT [5]: 4.75 x10E6/uL
HEMATOCRIT [5]: 30.63%
HEMOGLOBIN [5]: 12.1 G/DL
LYMPHOCYTE [5]: 91.33%
MEAN CORPUSCULAR HEMOGLOBIN CONCENTRATION [5]: 39.5 G/DL
MEAN CORPUSCULAR VOLUME [5]: 64.5 fL
NUCLEATED RED BLOOD CELLS [5]: 0 /100WBC
PLATELET COUNT [5]: 848.67 x10E3/uL
ALANINE AMINOTRANSFERASE [5]: 54.67 u/L
ALBUMIN [5]: 4.57 G/DL
ALKALINE PHOSPHATASE [5]: 365.33 u/L
ASPARTATE AMINOTRANSFERASE [5]: 98.33 u/L
BLOOD UREA NITROGEN [5]: 12.33 mg/dL
CARBON DIOXIDE [5]: 27 mmol/L
CREATINE PHOSPHOKINASE [5]: 885.67 u/L
CREATININE [5]: 0.27 mg/dL
LACTATE DEHYDROGENASE [5]: 151.33 u/L
TOTAL BILIRUBIN [5]: 0.13 mg/dL
TOTAL PROTEIN [5]: 5.73 G/DL
URIC ACID [5]: 0.97 mg/dL
ABSOLUTE BASOPHIL [6]: 0 CELLS/uL
ABSOLUTE EOSINOPHIL [6]: 17.33 CELLS/uL
ABSOLUTE LYMPHOCYTE [6]: 10964.5 CELLS/uL
ABSOLUTE MONOCYTE [6]: 176.17 CELLS/uL
ABSOLUTE SEGMENTED NEUTROPHIL [6]: 858.67 CELLS/uL
BASOPHIL [6]: 0%
EOSINOPHIL [6]: 0.17%
ERYTHROCYTE COUNT [6]: 5.66 x10E6/uL
HEMATOCRIT [6]: 35.15%
HEMOGLOBIN [6]: 14.03 G/DL
LYMPHOCYTE [6]: 91.17%
MEAN CORPUSCULAR HEMOGLOBIN CONCENTRATION [6]: 39.97 G/DL
MEAN CORPUSCULAR VOLUME [6]: 62.08 fL
NUCLEATED RED BLOOD CELLS [6]: 0 /100WBC
ALANINE AMINOTRANSFERASE [6]: 54.33 u/L
ALBUMIN [6]: 4.53 G/DL
ALKALINE PHOSPHATASE [6]: 352 u/L
ASPARTATE AMINOTRANSFERASE [6]: 82 u/L
CARBON DIOXIDE [6]: 33 mmol/L
CREATINE PHOSPHOKINASE [6]: 171.5 u/L
CREATININE [6]: 0.19 mg/dL
LACTATE DEHYDROGENASE [6]: 147.33 u/L
TOTAL BILIRUBIN [6]: 0.17 mg/dL
TOTAL PROTEIN [6]: 5.83 G/DL
ABSOLUTE BASOPHIL [7]: 0 CELLS/uL
ABSOLUTE EOSINOPHIL [7]: 14.83 CELLS/uL
ABSOLUTE LYMPHOCYTE [7]: 8599.83 CELLS/uL
ABSOLUTE SEGMENTED NEUTROPHIL [7]: 668 CELLS/uL
BASOPHIL [7]: 0%
EOSINOPHIL [7]: 0.17%
ERYTHROCYTE COUNT [7]: 5.49 x10E6/uL
HEMATOCRIT [7]: 33.87%
HEMOGLOBIN [7]: 13.08 G/DL
LYMPHOCYTE [7]: 92.33%
MEAN CORPUSCULAR HEMOGLOBIN CONCENTRATION [7]: 38.63 G/DL
MEAN CORPUSCULAR VOLUME [7]: 61.8 fL
NUCLEATED RED BLOOD CELLS [7]: 0 /100WBC
PLATELET COUNT [7]: 1292.17 x10E3/uL
ALANINE AMINOTRANSFERASE [7]: 74.17 u/L
ALBUMIN [7]: 5.1 G/DL
ALKALINE PHOSPHATASE [7]: 331.67 u/L
ASPARTATE AMINOTRANSFERASE [7]: 84.67 u/L
BLOOD UREA NITROGEN [7]: 15.33 mg/dL
CARBON DIOXIDE [7]: 31.67 mmol/L
CREATINE PHOSPHOKINASE [7]: 252 u/L
CREATININE [7]: 0.24 mg/dL
LACTATE DEHYDROGENASE [7]: 121.33 u/L
TOTAL BILIRUBIN [7]: 0.1 mg/dL
TOTAL PROTEIN [7]: 6.25 G/DL
ABSOLUTE BASOPHIL [8]: 0 CELLS/uL
ABSOLUTE EOSINOPHIL [8]: 60.33 CELLS/uL
ABSOLUTE LYMPHOCYTE [8]: 18749.67 CELLS/uL
ABSOLUTE MONOCYTE [8]: 284.33 CELLS/uL
ABSOLUTE SEGMENTED NEUTROPHIL [8]: 1839 CELLS/uL
BASOPHIL [8]: 0%
EOSINOPHIL [8]: 0.33%
ERYTHROCYTE COUNT [8]: 5.51 x10E6/uL
HEMATOCRIT [8]: 33.9%
